Measurements: patent US4879277A, “Antiviral compositions and methods” (The United States of America as represented by the …, priority 1987, dated 1989)
“Also recorded” adds a separate entry of the source.

Legend:
HIV [1] = experiment: In vitro inhibition of the cytopathic effect of HIV in ATH8 cells; assay type: cell-based, human immunodeficiency virus
From the text: ATH8 cells (2×10^5) were pre-exposed to polybrene, and exposed to HIV in culture tubes (2,000 virus particles per cell), in the presence or absence of various concentrations of 2',3'-dideoxycytidine (ddC).
(§1) Of critical importance to the biological activation of the 2',3'-dideoxycytidine analogues inside human cells, both as antiviral and as antitumor agents, is their anabolic conversion to nucleotides inside cells. This cannot be assumed to occur because not all nucleoside analgoues can be adequately phosphorylated. The ability of HIV-infected human T-lymphoblasts to phosphorylate 2',3'-dideoxycytidine nucleoside (ddCyd) was tested. […] The incubation was terminated after 24 hours of drug exposure, and the TCA-soluble fraction of the cell lysate was resolved on HPLC, utilizing a radial compression column of Partisil-10 SAX with a gradient of ammonium phosphate.

HIV-infected ATH8 cells = tested on: HIV-infected ATH8 cells
Procedure: as §1

HIV [2] = experiment: In vitro inhibition of infectivity and replication of HIV (p24 gag expression in H9 cells); assay type: cell-based
Procedure: The in vitro inhibition of the infectivity and replication of the HIV virus by ddC was also tested. The results are shown in FIG. 4-B. In this test, 10^5 H9 cells were exposed to various concentrations of ddC for 4 hours, then to 2 ug/ml polybrene for 30 minutes, pelleted, and then exposed to HIV (3,000 virus particles/cell) for 1.5 hours. Cells were resuspended in fresh complete medium and cultured in tubes at 37° C. in 5% CO2 -containing humidified air, and under conditions in which the cells were continuously exposed to ddC. On days 8 (left), 9 (middle), and 10 (right) in culture, the percentage of the target H9 cells expressing p24 gag protein of HIV was determined by indirect immunofluorescence microscopy by using anti-HIV p24 murine monocolonal antibody.

T4 cells [3] = experiment: T4 cell number and T4/T8 ratio in AIDS patients receiving ddC; assay type: in vivo, human; conditions: for T4/T8 Ratio, Start Treatment / T4/mm3, Start Treatment: start of treatment
From the text: (§2) The efficacy of the application of 2',3'-dideoxycytidine in human use is shown graphically in Table I, where the absolute number of T4 cells and the T4/T8 ratio both show an increase in the T cells, indicating improvements of the immune system in patients with AIDS and its related conditions following therapy. […] It has also been shown that the circulating p24 antigen-level (a measure of viral replication in a patient's body) falls, following treatment with these compositions.
*Patients 1 and 2 received one dose of ddC every 8 hours, and patient 3
received one dose every 4 hours. Patient 1 received intravenous (IV)
dosing throughout; patient 2 received IV dosing for 21 days, followed by
oral dosing; patient 3 received IV dosing throughout. IV dosing was given
as 1 hour infusions. For oral dosing, the ddC was administered dissolved
in 0.1 ml of 0.9% sodium chloride solution and approximately 100 ml of
orange juice. Each patient received a 1 hour intravenous infusion (test
dose) of ddC two days prior to the initiating of dosing.

HIV p24 antigen = experiment: Circulating HIV p24 antigen level in patients; assay type: in vivo, human immunodeficiency virus; conditions: following treatment
From the text: as §2
levels in the blood after one to two weeks of treatment.

[4] = Toxicity observed in humans likely due to ddC administration; assay type: in vivo, human
From the text: Toxicity toward humans has been shown by the observation residing in Table II.
Toxicity Observed Which is
Likely to be Due to ddC Administration

[5] = tested on: Human T4^+ T lymphocytes (ATH8 cell line); experiment: Anabolism of ddCyd by human T4+ T lymphocytes (intracellular concentration); assay type: in vitro ADME; conditions: ATH8 cells exposed to 1 uM ddCyd for 24 hours
Procedure: * After incubation with ^3 Hlabelled 2',3dideoxycytidine (ddCyd) (1
exchange HPLC using radial compression columns of PartisilSAX equilibrate
phosphate, pH 3.8. ddCMP, 2',3dideoxycytidine-5monophosphate; ddCDP,

Clone TM 3 = experiment: In vitro immune reactivity of normal helper/inducer TM3 cells (3H-uridine incorporation); assay type: cell-based, human; conditions: 72 hours, tetanus toxoid, control (None) 12 ± 1
PBM + PHA = experiment: In vitro immune reactivity of PBM stimulated with PHA (3H-uridine incorporation); assay type: cell-based, human; conditions: 72 hours, control (None) 82 ± 1
Procedure: (§3) 5×10^4 normal helper/inducer TM3 cells were stimulated with tetanus toxoid (0.6 limiting flocculation units/ml) plus 10^5 irradiated (4,000 rad) autologous peripheral blood mononuclear cells (PBM) as a source of accessory cells, and were cultured for 72 hours in the presence or absence of ddC. After exposure to uCi ^3 H-uridine for the final 5 hours, cells were harvested onto glass fibers and the incorporated radioactivity was counted. Data are expressed as the arithmetic mean counts per minute (×10^3)±1 standard deviation triplicate determinations. 10^6 PBM from a healthy individual were stimulated with phytohaemagglutinin (PHA) or pokeweek mitogen (PWM) and cultured for 72 hours, and treated as described above. ^3 H-uridine incorporation was used as an indicator of activiation of the responder cells.

PBM + PWM = experiment: In vitro immune reactivity of PBM stimulated with PWM (3H-uridine incorporation); assay type: cell-based, human; conditions: 72 hours, control (None) 24 ± 1
Procedure: as §3

cytidine deaminase = experiment: Sensitivity to cytidine deaminase; assay type: in vitro ADME
T cells = experiment: Safety to T cells (studies of anabolic phosphorylation on human cells); assay type: cell-based; conditions: comparable dosages
normal lymphocytes = tested on: normal lymphocytes
Procedure: as §3

T4 cells [6] = experiment: T4 cell number and T4/T8 ratio in AIDS patients receiving ddC; assay type: in vivo, human; conditions: patient 2, 0.03 mg/kg every 8 hours, IV then oral, 19 days receiving ddC
[7] = Example 7, concentration (uM) figure not given
[8] = AIDS patients, following therapy
[9] = patient 1, 0.25 mg/kg every 8 hours IV, 8 days receiving ddC
[10] = patient 1, 0.25 mg/kg every 8 hours IV
[11] = patient 2, 0.03 mg/kg every 8 hours, IV then oral
[12] = patient 3, 0.03 mg/kg every 4 hours IV, 12 days receiving ddC
[13] = patient 3, 0.03 mg/kg every 4 hours IV
[14] = 0.03 mg/kg 3×/day intravenous for 12 days followed by 0.3 mg/kg 3×/day orally

For `Nc1ccn([C@H]2C[C@H](O)[C@@H](CO)O2)c(=O)n1` [dCYD, reference compound], the “reversal of the anti-HIV effect of ddCyd” value (HIV [1]; dCYD with ddCyd) was “reverses the anti-HIV effect of ddCyd” and the “phosphorylation of ddCYD” value (HIV-infected ATH8 cells; dCYD (5 uM) added together with ddCYD) was “phosphorylation was blocked”.
For `Nc1ccn([C@H]2CC[C@@H](CO)O2)c(=O)n1` [ddC, 2',3'-dideoxycytidine], the “inhibition of the cytopathic effect of the virus” value (HIV [1]; 1 uM ddCyd) was 100%, the “inhibition of the cytopathic effect of HIV” value (HIV [1]; ATH8 cells, day 5, 2,000 virus particles per cell, FIG. 4-A) was “almost complete inhibition” and the “inhibition of the cytopathic effect of HIV” value (HIV [1]; [7]) was “virtually complete inhibition”. The “inhibition of the infectivity of the virus” value (HIV [2]; 1 uM ddCyd) was 100%, the “inhibition of the replication of the virus” value (HIV [2]; 1 uM ddCyd) was 100% and the “inhibition of the viral p24 expression” value (HIV [2]; [7]) was “virtually complete inhibition”. For the same compound, the “inhibition of the infectivity and replication of HIV” value (HIV [2]; H9 cells, p24 gag expression, days 8, 9, 10, 3,000 virus particles/cell, FIG. 4-B) was “almost complete inhibition”, the “T4/T8 ratio (change)” value (T4 cells [3]; [8]) was “increase” and the “absolute number of T4 cells” value (T4 cells [3]; [8]) was “increase”. For the same compound, the “T4/T8 Ratio, End Treatment” value (T4 cells [3]; [9]) was 0.40, the “T/mm3, End Treatment” value (T4 cells [3]; [9]) was 530 /mm3 and the “T4/T8 Ratio, Start Treatment” value (T4 cells [3]; [10]) was 0.20. For the same compound, the “T4/mm3, Start Treatment” value (T4 cells [3]; [10]) was 309 /mm3, the “T4/T8 Ratio, Start Treatment” value (T4 cells [3]; [11]) was 0.39 and the “T4/mm3, Start Treatment” value (T4 cells [3]; [11]) was 260 /mm3. For the same compound, the “T4/T8 Ratio, End Treatment” value (T4 cells [3]; [12]) was 0.51, the “T/mm3, End Treatment” value (T4 cells [3]; [12]) was 307 /mm3 and the “T4/T8 Ratio, Start Treatment” value (T4 cells [3]; [13]) was 0.26. The “T4/mm3, Start Treatment” value (T4 cells [3]; [13]) was 246 /mm3, the “circulating p24 antigen-level” value (HIV p24 antigen) was “falls” and the “Tolerated for up to, without significant toxicity in some patients” value [4, 14] was “up to 40 days”. The “minor toxicity in one patient” value [4, 14] was “skin rash and oral ulcers”, the “Tolerated for up to, without significant toxicity” value ([4]; 0.03 mg/kg 6×/day intravenous for 14 days, followed by 0.03 mg/kg 6×/day orally) was “up to 18 days” and the Toxicity ([4]; 0.25 mg/kg 3×/day intravenous) was “Thrombocytopenia; also recorded: skin rash”. The “platelets, before drop” value ([4]; 0.25 mg/kg 3×/day intravenous, dropped from) was 234,000 /mm^3, the “platelets, after drop” value ([4]; 0.25 mg/kg 3×/day intravenous, dropped to) was 68,000 /mm^3 and the minor toxicities ([4]; humans) was “skin rash and aphthous stomatitis”. The “toxic effect in humans” value ([4]; humans) was “bone marrow suppression (decreased platelets)”, the “toxicity in some patients with prolonged administration” value ([4]; some patients, prolonged administration) was “small fiber peripheral neuropathy” and the “Intracellular concentration of ddCDP” value [5] was 1.20 µM. For the same compound, the “Intracellular concentration of ddCDPch” value [5] was 1.10 µM, the “Intracellular concentration of ddCMP” value [5] was 2.10 µM and the “Intracellular concentration of ddCTP” value [5] was 0.5 µM. For the same compound, the “Intracellular concentration of ddCyd” value [5] was 6.40 µM, the “difference between uninfected and HIV-infected ATH8 cells in ability to phosphorylate ddCYD” value (HIV-infected ATH8 cells) was “No significant qualitative or quantitative differences” and the “mean counts per minute (×10^3) ± 1 standard deviation, 3H-uridine incorporation” value (Clone TM 3; 1 uM ddC) was 13 ± 1 counts per minute (×10^3). The “mean counts per minute (×10^3) ± 1 standard deviation, 3H-uridine incorporation” value (Clone TM 3; 10 uM ddC) was 8 ± 1 counts per minute (×10^3), the “mean counts per minute (×10^3) ± 1 standard deviation, 3H-uridine incorporation” value (PBM + PHA; 1 uM ddC) was 101 ± 1 counts per minute (×10^3) and the “mean counts per minute (×10^3) ± 1 standard deviation, 3H-uridine incorporation” value (PBM + PHA; 10 uM ddC) was 86 ± 3 counts per minute (×10^3). The “mean counts per minute (×10^3) ± 1 standard deviation, 3H-uridine incorporation” value (PBM + PWM; 1 uM ddC) was 23 ± 3 counts per minute (×10^3), the “mean counts per minute (×10^3) ± 1 standard deviation, 3H-uridine incorporation” value (PBM + PWM; 10 uM ddC) was 15 ± 3 counts per minute (×10^3) and the “sensitivity to cytidine deaminase” value (cytidine deaminase) was “not sensitive to cytidine deaminase”. For the same compound, the “safety to T cells” value (T cells) was “safe and non-lethal to T cells”, the harm to cells (normal lymphocytes) was “not harmed by drug concentrations that exceed the virustatic dose” and the “T4/T8 Ratio, End Treatment” value (T4 cells [6]) was 0.47. The “T/mm3, End Treatment” value (T4 cells [6]) was 326 /mm3.
